Results from PMC7367925, “The EU-ToxRisk method documentation, data processing and chemical testing pipeline for the regulatory use of new approach methods” (Archives of Toxicology, 2020).

Assays:
[1] = molecular target: T1, Estrogen receptor alpha (Homo sapiens, UniProt P03372); assay type: cell-based; conditions: 24 h exposure, lowest effect level PC10, means from 3 assay runs
T1 construct: host or cells: U-2 OS
Procedure: (§1) After 24 h, exposure medium was prepared. […] All samples were tested in triplicates. […] Fig. SM_4. […] Fig. SM_4.
(§2) Supplementary Material SM_4
(§3) Overview of CALUX assays.
(§4) This is defined as the concentration of test compound […]
(§5) for an antagonist assay is a PC20.
(§6) PC = positive control. FI = fold induction. PC10: concentration where test compound causes an activation equal to 10% of the maximum effect (positive control). PC20: concentration where test compound causes […]
(§7) FI=1.5: concentration where test
(§8) (A) exemplary graph of concentration- […]
(§9) receptor antagonism assay with PC20 as lowest-effect-level. (C) exemplary graph for assay with 1.5 fold inductionas lowest effect level. 9

[2] = molecular target: T2, Glucocorticoid receptor (Homo sapiens, UniProt P04150); assay type: cell-based; conditions: 24 h exposure, lowest effect level PC20, reference agonist at EC50, means from 3 assay runs
T2 construct: host or cells: U-2 OS
T2 sequence (P04150 1-777): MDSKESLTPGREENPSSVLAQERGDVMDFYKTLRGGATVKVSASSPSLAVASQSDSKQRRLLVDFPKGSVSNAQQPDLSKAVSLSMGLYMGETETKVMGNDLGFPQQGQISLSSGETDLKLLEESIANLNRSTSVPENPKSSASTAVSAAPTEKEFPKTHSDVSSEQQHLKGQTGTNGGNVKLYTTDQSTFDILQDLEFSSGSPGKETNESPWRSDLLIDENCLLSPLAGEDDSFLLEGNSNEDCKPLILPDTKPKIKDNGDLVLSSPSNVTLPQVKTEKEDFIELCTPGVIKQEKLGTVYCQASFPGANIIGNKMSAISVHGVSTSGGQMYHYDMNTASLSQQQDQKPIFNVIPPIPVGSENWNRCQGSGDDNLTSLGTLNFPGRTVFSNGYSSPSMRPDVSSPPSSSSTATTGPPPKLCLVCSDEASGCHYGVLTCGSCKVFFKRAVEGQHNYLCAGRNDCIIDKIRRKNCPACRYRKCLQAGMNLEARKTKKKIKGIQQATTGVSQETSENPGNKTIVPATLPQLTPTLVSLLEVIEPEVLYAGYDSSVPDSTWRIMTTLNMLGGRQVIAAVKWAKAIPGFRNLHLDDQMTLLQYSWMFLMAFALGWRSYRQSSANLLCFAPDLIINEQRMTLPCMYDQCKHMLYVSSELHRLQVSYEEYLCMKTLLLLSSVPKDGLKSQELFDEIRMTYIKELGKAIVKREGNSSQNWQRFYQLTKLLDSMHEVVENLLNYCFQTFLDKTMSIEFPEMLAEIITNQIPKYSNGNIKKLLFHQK
Procedure: as §1, §2, §3, §4, §5, §6, §7, §8, §9

[3] = molecular target: T3, Progesterone receptor (Homo sapiens, UniProt P06401); test: PR-anti CALUX; assay type: cell-based; conditions: 24 h exposure, lowest effect level PC20, reference agonist at EC50, means from 3 assay runs
T3 construct: host or cells: U-2 OS
T3 sequence (P06401 1-933): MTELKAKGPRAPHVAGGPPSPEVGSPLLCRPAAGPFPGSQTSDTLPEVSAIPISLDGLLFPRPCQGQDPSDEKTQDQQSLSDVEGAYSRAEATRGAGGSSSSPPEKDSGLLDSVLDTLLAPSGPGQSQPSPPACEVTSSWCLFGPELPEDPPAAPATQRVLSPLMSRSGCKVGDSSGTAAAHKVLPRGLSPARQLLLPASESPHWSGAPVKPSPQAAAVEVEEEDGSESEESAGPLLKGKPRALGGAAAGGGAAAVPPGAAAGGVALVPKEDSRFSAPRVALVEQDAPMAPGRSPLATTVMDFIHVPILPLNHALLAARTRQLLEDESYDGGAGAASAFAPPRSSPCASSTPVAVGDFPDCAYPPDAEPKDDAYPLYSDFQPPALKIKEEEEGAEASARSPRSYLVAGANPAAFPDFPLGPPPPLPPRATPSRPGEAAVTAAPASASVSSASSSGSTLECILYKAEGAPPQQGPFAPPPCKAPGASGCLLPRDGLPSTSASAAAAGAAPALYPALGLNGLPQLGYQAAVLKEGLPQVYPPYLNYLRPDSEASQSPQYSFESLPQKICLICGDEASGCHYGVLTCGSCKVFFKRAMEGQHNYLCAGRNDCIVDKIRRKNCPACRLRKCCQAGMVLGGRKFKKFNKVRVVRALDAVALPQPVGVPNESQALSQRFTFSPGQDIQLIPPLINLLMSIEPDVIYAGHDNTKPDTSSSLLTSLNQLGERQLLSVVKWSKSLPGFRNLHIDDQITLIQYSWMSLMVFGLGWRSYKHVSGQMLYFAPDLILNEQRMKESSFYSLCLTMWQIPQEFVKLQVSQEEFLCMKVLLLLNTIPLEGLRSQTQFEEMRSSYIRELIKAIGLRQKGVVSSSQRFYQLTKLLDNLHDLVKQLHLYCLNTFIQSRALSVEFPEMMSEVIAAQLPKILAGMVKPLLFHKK
Procedure: as §1, §2, §3, §4, §5, §6, §7, §8, §9

[4] = molecular target: T4, Pregnane X receptor (Homo sapiens, UniProt O75469); test: PXR CALUX; assay type: cell-based; conditions: 24 h exposure, lowest effect level PC10, means from 3 assay runs
T4 construct: host or cells: U-2 OS
T4 sequence (O75469 1-434): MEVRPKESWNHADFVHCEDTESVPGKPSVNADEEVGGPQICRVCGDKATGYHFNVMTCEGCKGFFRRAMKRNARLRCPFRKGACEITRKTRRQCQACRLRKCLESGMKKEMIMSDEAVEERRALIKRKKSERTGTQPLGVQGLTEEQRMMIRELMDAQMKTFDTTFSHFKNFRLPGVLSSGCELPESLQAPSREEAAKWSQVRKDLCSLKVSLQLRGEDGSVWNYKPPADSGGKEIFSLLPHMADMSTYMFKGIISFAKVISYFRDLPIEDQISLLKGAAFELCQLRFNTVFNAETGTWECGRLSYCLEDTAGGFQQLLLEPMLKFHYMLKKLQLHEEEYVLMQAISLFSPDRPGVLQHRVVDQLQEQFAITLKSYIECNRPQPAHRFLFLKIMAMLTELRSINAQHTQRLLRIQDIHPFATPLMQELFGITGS
Procedure: as §1, §2, §3, §4, §5, §6, §7, §8, §9

[5] = molecular target: T5, Aryl Hydrocarbon receptor (Rattus norvegicus, UniProt P41738); test: DR CALUX / AhR CALUX (rat hepatoma H-4-II-E cells); assay type: cell-based; conditions: 24 h exposure, lowest effect level PC10, means from 3 assay runs
T5 construct: host or cells: rat hepatoma H-4-II-E (ATCC CRL-1548)
T5 sequence (P41738 10-853): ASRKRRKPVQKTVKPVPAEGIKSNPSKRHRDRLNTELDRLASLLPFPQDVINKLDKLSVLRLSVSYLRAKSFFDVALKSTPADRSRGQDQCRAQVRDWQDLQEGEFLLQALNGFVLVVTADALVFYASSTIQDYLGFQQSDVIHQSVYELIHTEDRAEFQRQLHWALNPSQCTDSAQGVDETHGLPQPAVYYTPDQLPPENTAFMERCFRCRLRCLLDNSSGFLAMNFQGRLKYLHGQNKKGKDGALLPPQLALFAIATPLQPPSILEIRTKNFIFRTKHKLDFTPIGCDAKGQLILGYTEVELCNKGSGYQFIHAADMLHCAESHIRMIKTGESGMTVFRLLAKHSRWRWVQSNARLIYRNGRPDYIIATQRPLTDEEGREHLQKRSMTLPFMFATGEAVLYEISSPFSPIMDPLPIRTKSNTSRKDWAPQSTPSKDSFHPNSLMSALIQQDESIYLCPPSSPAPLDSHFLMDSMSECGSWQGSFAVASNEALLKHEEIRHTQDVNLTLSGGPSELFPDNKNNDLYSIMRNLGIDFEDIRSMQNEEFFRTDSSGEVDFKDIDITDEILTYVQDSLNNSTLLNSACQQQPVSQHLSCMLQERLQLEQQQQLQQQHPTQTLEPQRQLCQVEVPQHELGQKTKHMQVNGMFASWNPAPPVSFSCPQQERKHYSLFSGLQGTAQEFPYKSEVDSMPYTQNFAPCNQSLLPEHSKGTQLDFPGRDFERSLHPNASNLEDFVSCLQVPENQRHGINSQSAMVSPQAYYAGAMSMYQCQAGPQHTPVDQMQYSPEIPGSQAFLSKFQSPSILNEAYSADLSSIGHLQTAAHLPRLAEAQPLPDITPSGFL

[6] = test system: U-2 OS cells; test: Cytotox CALUX; conditions: 24 h exposure, lowest effect level PC20, means from 3 assay runs
[7] = test system: U-2 OS reporter cell lines battery; test: CALUX reporter gene assay battery as a whole; conditions: all CALUX assays, 13 concentrations, 24 h exposure
[8] = molecular target: T6, PPARα (Homo sapiens, UniProt Q07869); test: PPARa CALUX; assay type: cell-based; conditions: 24 h exposure, lowest effect level PC10, means from 3 assay runs
T6 construct: host or cells: U-2 OS
T6 sequence (Q07869 1-468): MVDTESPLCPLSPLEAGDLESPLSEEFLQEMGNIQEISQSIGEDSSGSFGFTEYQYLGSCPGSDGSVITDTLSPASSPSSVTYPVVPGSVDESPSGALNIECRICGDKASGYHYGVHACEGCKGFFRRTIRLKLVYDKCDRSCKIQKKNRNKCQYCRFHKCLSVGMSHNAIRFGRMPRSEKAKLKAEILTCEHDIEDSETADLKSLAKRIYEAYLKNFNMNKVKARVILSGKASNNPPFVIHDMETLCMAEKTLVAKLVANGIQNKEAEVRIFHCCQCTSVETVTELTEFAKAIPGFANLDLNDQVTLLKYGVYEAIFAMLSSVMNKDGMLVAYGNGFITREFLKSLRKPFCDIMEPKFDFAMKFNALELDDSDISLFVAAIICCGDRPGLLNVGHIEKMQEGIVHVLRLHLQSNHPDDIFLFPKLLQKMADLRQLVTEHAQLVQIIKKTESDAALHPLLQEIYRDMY
Procedure: as §1
Cell line Endpoint effect Reference compound […]
PPARa CALUX Peroxisomeproliferator activated receptor agonists PC10 GW7647 […]
as §2, §3, §4, §5, §6, §7, §8, §9

[9] = test system: wnt/TCF pathway activation; test: TCF CALUX; assay type: cell-based, human; conditions: 24 h exposure, lowest effect level FI=1.5, means from 3 assay runs
[10] = test system: Endoplasmic reticulum stress; test: ESRE CALUX; assay type: cell-based, human; conditions: 24 h exposure, lowest effect level PC10, means from 3 assay runs
Procedure: as §1, §2, §3, §4, §5, §6, §7, §8, §9

[11] = test system: Transcription of p21 inhibitor of cell cycle progression; test: p21 CALUX; assay type: cell-based, human; conditions: 24 h exposure, lowest effect level PC10, means from 3 assay runs
Procedure: as §1, §2, §3, §4, §5, §6, §7, §8, §9

T1 sequence (P03372 whole entry): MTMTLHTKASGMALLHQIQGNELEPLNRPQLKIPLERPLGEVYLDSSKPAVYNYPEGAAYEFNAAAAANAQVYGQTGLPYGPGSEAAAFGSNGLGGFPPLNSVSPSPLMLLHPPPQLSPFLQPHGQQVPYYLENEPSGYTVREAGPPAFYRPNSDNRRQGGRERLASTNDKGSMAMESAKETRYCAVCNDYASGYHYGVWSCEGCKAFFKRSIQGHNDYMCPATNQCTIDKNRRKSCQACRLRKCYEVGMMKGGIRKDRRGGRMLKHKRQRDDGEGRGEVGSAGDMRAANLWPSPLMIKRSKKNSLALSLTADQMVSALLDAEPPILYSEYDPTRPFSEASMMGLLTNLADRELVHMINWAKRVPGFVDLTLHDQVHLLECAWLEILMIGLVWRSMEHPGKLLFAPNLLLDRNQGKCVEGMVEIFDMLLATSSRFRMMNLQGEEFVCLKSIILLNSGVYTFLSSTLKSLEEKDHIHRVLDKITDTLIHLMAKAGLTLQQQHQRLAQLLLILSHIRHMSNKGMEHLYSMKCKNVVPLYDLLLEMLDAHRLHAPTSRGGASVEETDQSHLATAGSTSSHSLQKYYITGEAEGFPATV

## O=P(Oc1ccccc1)(Oc1ccccc1)Oc1ccccc1 [Triphenyl phosphate]
[1]
  PoD Erα - ago: 5.4 -log(M)
[2]
  PoD GR - anta: 4.8 -log(M)
[3]
  PoD PR - anta: 5.2 -log(M)
[4]
  PoD PXR - ago: 6.1 -log(M)
[5]
  PoD AhR - ago: 4.2 -log(M)
[6]
  PoD cytotoxicity: 4.0 -log(M)
[7]
  response profile over the CALUX battery (in words): only activated nuclear hormone receptor related assays

## CCCC(CCC)C(=O)O [Valproic acid]
[3]
  PoD PR - anta: 3.1 -log(M)
[4]
  PoD PXR - ago: 4.0 -log(M)
[8]
  PoD PPARα - ago: 4.0 -log(M)
[9]
  PoD TCF: 4.0 -log(M)
[10]
  PoD ESRE: 4.0 -log(M)
[11]
  PoD p21: 3.2 -log(M)
